Assay results: publication PMC3463757 (2012)

How the values were obtained:
[1] = target: ROCK1 (Homo sapiens, UniProt Q13464); assay: Invitrogen Z-Lyte FRET kinase assay, […] peptide substrate; type: biochemical
[2] = target: ROCK2 (Homo sapiens, UniProt O75116); assay: as above; type: biochemical
Sequence of ROCK2 (O75116 whole entry): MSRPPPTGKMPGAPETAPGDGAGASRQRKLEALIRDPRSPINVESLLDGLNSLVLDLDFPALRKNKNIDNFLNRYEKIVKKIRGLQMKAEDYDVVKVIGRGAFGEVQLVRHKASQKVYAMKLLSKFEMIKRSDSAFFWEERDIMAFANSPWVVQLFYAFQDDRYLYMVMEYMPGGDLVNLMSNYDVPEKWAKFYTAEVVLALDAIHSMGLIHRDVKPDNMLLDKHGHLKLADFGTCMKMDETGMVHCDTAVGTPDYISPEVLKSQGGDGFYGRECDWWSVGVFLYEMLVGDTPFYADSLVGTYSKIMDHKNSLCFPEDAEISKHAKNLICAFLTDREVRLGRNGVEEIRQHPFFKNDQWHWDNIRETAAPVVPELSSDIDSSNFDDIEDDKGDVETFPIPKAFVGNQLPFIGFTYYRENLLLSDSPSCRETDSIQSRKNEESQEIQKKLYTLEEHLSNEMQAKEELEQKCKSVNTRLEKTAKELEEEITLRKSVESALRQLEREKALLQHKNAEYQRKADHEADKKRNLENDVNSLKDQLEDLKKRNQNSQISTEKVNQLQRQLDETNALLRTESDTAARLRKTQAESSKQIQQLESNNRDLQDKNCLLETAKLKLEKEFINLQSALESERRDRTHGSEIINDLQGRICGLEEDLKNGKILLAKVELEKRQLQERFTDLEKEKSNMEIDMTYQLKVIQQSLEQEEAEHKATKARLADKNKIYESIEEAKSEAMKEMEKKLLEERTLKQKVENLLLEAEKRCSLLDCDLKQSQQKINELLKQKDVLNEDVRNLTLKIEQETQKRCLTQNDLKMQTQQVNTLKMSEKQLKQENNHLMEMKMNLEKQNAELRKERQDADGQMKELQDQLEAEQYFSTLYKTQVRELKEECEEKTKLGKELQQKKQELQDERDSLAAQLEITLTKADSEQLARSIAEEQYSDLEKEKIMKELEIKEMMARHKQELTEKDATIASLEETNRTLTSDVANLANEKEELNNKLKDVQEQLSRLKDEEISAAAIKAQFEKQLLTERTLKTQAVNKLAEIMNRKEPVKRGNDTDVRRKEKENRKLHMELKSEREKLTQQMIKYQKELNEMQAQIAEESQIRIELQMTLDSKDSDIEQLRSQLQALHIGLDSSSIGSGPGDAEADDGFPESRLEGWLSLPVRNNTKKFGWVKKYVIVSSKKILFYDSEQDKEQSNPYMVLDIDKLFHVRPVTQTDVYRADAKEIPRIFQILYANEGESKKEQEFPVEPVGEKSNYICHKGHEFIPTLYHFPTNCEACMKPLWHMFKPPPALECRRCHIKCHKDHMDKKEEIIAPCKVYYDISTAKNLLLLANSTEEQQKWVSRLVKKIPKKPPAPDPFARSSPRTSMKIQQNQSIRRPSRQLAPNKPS

Sequence of ROCK1 (Q13464 2-1354): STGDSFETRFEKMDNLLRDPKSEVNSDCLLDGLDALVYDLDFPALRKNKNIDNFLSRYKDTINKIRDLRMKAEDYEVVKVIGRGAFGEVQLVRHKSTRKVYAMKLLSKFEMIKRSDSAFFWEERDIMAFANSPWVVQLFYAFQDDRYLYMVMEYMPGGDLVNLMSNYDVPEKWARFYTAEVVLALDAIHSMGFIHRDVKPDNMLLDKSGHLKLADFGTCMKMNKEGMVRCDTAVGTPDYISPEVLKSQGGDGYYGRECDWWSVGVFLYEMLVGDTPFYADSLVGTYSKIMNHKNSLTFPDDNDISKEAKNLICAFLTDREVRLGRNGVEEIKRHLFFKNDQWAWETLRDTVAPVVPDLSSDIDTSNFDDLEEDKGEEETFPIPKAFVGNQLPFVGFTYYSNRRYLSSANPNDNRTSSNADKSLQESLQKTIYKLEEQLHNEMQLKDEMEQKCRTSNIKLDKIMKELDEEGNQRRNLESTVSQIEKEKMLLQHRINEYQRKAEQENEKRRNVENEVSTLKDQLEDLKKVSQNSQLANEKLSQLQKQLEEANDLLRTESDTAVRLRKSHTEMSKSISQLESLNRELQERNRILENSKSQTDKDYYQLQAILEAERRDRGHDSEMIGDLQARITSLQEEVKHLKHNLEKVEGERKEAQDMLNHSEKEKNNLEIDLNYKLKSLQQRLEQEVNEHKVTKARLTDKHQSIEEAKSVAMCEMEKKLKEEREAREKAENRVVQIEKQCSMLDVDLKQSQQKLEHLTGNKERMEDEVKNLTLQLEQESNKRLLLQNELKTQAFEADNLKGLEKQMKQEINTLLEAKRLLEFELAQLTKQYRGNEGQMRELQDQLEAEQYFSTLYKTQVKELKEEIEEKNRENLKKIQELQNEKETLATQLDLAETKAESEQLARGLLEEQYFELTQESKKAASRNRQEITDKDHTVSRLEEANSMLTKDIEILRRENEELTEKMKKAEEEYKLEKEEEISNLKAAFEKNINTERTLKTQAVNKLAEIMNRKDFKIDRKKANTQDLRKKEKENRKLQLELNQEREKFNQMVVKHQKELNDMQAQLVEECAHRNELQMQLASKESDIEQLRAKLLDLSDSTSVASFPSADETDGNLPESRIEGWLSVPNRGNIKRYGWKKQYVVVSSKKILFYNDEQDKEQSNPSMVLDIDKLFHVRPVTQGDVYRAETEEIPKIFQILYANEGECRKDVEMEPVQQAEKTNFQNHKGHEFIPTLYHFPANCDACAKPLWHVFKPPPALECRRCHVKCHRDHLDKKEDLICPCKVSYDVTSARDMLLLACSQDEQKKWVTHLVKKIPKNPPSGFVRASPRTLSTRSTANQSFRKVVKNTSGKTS

IC50 [1]: 34 µM
IC50 [2]: 8 µM
Substance: RKI-1313
